Results reported in patent US11820776B2, “Process for the preparation of Remimazolam and solid state forms of Remimazolam salts” (WATSON LABORATORIES INC., priority 2017, dated 2023).

Key:
Assay type in all cases: physicochemical
[1] = Solid state stability at 80% relative humidity in open Petri dish; conditions: 80% relative humidity (RH), room temperature (RT)
[2] = Solubility in various pH ranges; conditions: comparator not stated
Kinetic water solubility = conditions: comparator not stated
[3] = Compressibility properties; conditions: compared to Remimazolam besylate; may indicate better flow properties
Bulk density = conditions: compared to Remimazolam besylate

## Br.COC(=O)CC[C@@H]1N=C(c2ccccn2)c2cc(Br)ccc2-n2c(C)cnc21 [Form 1 of Remimazolam Mono hydrobromide]
[1]
  period for which the crystalline form is stable: at least 24 hours
[2]
  solubility in various pH ranges: improved
Kinetic water solubility
  kinetic water solubility: improved

## CC1(C)C2CCC1(CS(=O)(=O)O)C(=O)C2.COC(=O)CC[C@@H]1N=C(c2ccccn2)c2cc(Br)ccc2-n2c(C)cnc21 [Form 2 of Remimazolam Camphor Sulfonate]
[3]
  compressibility properties: improved
[1]
  period for which the crystalline form is stable: at least 24 hours
Bulk density
  bulk density: higher

## COC(=O)CC[C@@H]1N=C(c2ccccn2)c2cc(Br)ccc2-n2c(C)cnc21.CS(=O)(=O)O [Form 2 of Remimazolam Methane Sulfonate]
[1]
  period for which the crystalline form is stable: at least 24 hours
[2]
  solubility in various pH ranges: improved
Kinetic water solubility
  kinetic water solubility: improved
